Experimental data: US9079913B2, “Spiro-oxindole MDM2 antagonists” (The Regents of the University of Michigan, priority 2009, dated 2015)
Like-named read-outs stand apart in the source and are kept apart here.

Tests used:
[1] = system: Isogenic HCT-116 colon cancer cell lines; test: cells; assay type: cell-based; settings: Homo sapiens, cell growth;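 also: cells grown in 96-well plates in McCoy's 5A medium with 10% FBS, exposed to compound for 4 days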
Protocol: Cells were seeded in 96-well flat bottom cell culture plates at a density of 2−3×10^3 cells/well with compounds and incubated for 4 days.

[2] = In vitro microsomal stability, rat; assay type: in vitro ADME; settings: for Microsomal stability, % remaining: Rat Microsome, same batch; for microsomal stability (in words) / % of compound remaining when incubated in rat liver microsomes with NADPH: rat liver microsomes; for half-life: rat, liver microsomes, rat liver microsomes with NADPH
[3] = biological target: recombinant human His-tagged MDM2 protein (residues 1-118) (Homo sapiens (Human), UniProt Q00987); test: Fluorescence-polarization MDM2 binding assay; settings: Table 19A; FP binding assay; read-out: MDM2 IC50;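 also: fluorescence polarization read after three hours of incubation in potassium phosphate buffer containing bovine gamma globulin and Triton X-100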
[4] = system: cancer cell lines with wild-type p53 / mutated or deleted p53 (ATCC); test: Cell growth assay (WST-8), other cancer cell lines; assay type: cell-based; settings: Homo sapiens
[5] = In vitro microsomal stability, human; assay type: in vitro ADME; settings: for Microsomal stability, % remaining: Human Microsome, same batch; for half-life: human, liver microsomes, human liver microsomes with NADPH; for % of compound remaining when incubated in human liver microsomes with NADPH / microsomal stability (in words): human liver microsomes
[6] = Pharmacokinetic studies in rats; assay type: in vivo, rat; settings: for oral bioavailability / oral pharmacokinetics in rats (in words): oral dosing; for bioavailability / half-life / AUC(0-t) / Cmax: rat, plasma, male rats, oral dose 15 mg/kg; for AUC(0-t): read-out: AUC(0-t); for Cmax: read-out: Cmax
Protocol: Pharmacokinetic studies on MDM2 inhibitors were carried out in rat. For comparison, the MDM2 inhibitor, AT-219, was also studied.

[7] = HCT-116, read-out: HCT-116 (p53-/-) IC50, Table 19A, HCT-116 p53-/-
[8] = HCT-116, read-out: HCT-116 (p53 wild-type) IC50, Table 19A, HCT-116 p53 wild-type
[9] = LNCaP, Table 19A, LNCAP cells, p53 wild-type, cell growth, read-out: LNCAP (p53 wild-type) IC50
[10] = PC-3, Table 19A, PC-3 cells, deleted p53, cell growth, read-out: PC-3 (deleted p53) IC50

Sequence of recombinant human His-tagged MDM2 protein (residues 1-118) (Q00987 1-118): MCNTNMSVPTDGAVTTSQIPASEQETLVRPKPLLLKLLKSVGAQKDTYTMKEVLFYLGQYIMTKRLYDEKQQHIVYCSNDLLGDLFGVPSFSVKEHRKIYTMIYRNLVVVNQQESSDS

## CC(C)(C)C[C@H]1N[C@@H](C(=O)NCC[C@H](O)CNC(C)(C)C)[C@H](c2cccc(Cl)c2)[C@@]12C(=O)Nc1cc(Cl)c(F)cc12 [MI-519-24]
[1]; [7]
  IC50: 6.5 ± 0.7 µM
[1]; [8]
  IC50: < 2 µM
[2]; 0 min
  Microsomal stability, % remaining: 100.00%
  % of compound remaining when incubated in rat liver microsomes with NADPH: 100.00%
[2]; 5 min
  Microsomal stability, % remaining: 102.16%
  % of compound remaining when incubated in rat liver microsomes with NADPH: 102.16%
[2]; 10 min
  Microsomal stability, % remaining: 86.33%
  % of compound remaining when incubated in rat liver microsomes with NADPH: 86.33%
[2]; 15 min
  Microsomal stability, % remaining: 75.72%
  % of compound remaining when incubated in rat liver microsomes with NADPH: 75.72%
[2]; 30 min
  Microsomal stability, % remaining: 68.24%
  % of compound remaining when incubated in rat liver microsomes with NADPH: 68.24%
[2]; 45 min
  Microsomal stability, % remaining: 66.08%
  % of compound remaining when incubated in rat liver microsomes with NADPH: 66.08%
[2]; 60 min
  Microsomal stability, % remaining: 61.51%
  % of compound remaining when incubated in rat liver microsomes with NADPH: 61.51%
[2]
  microsomal stability (in words): improved stability over MI-219
  half-life: 0.809 h
[3]
  IC50: < 2 µM
[4]; [9]
  IC50: < 3 µM
[4]; [10]
  IC50: 3.7 ± 0.2 µM
[5]; 0 min
  Microsomal stability, % remaining: 100.00%
  % of compound remaining when incubated in human liver microsomes with NADPH: 100.00%
[5]; 5 min
  Microsomal stability, % remaining: 57.08%
  % of compound remaining when incubated in human liver microsomes with NADPH: 57.08%
[5]; 10 min
  Microsomal stability, % remaining: 53.92%
  % of compound remaining when incubated in human liver microsomes with NADPH: 53.92%
[5]; 15 min
  Microsomal stability, % remaining: 49.62%
  % of compound remaining when incubated in human liver microsomes with NADPH: 49.62%
[5]; 30 min
  Microsomal stability, % remaining: 47.41%
  % of compound remaining when incubated in human liver microsomes with NADPH: 47.41%
[5]; 45 min
  Microsomal stability, % remaining: 41.18%
  % of compound remaining when incubated in human liver microsomes with NADPH: 41.18%
[5]; 60 min
  Microsomal stability, % remaining: 41.42%
  % of compound remaining when incubated in human liver microsomes with NADPH: 41.42%
[5]
  half-life: 0.187 h
[6]
  oral bioavailability / oral pharmacokinetics in rats (in words): much inferior oral pharmacokinetic parameters
  bioavailability: 1.1%
  half-life: 3.2 ± 1.4 h
  AUC(0-t): 101 ± 62 µg·h/mL
  Cmax: 35 ± 23 ng/mL

## CC(C)(C)C[C@H]1N[C@@H](C(=O)NCC[C@H](O)CN2CCCC2)[C@H](c2cccc(Cl)c2)[C@@]12C(=O)Nc1cc(Cl)c(F)cc12 [MI-519-28]
[1]; [7]
  IC50: > 5 µM
[1]; [8]
  IC50: < 2 µM
[2]; 0 min
  Microsomal stability, % remaining: 100.00%
  % of compound remaining when incubated in rat liver microsomes with NADPH: 100.00%
[2]; 5 min
  Microsomal stability, % remaining: 92.34%
  % of compound remaining when incubated in rat liver microsomes with NADPH: 92.34%
[2]; 10 min
  Microsomal stability, % remaining: 87.59%
  % of compound remaining when incubated in rat liver microsomes with NADPH: 87.59%
[2]; 15 min
  Microsomal stability, % remaining: 86.13%
  % of compound remaining when incubated in rat liver microsomes with NADPH: 86.13%
[2]; 30 min
  Microsomal stability, % remaining: 71.97%
  % of compound remaining when incubated in rat liver microsomes with NADPH: 71.97%
[2]; 45 min
  Microsomal stability, % remaining: 65.40%
  % of compound remaining when incubated in rat liver microsomes with NADPH: 65.40%
[2]; 60 min
  Microsomal stability, % remaining: 61.79%
  % of compound remaining when incubated in rat liver microsomes with NADPH: 61.79%
[2]
  microsomal stability (in words): improved stability over MI-219
  half-life: 1.24 h
[3]
  IC50: < 2 µM
[4]; [9]
  IC50: < 2 µM
[4]; [10]
  IC50: 4.1 ± 0.2 µM
[5]; 0 min
  Microsomal stability, % remaining: 100.00%
  % of compound remaining when incubated in human liver microsomes with NADPH: 100.00%
[5]; 5 min
  Microsomal stability, % remaining: 91.87%
  % of compound remaining when incubated in human liver microsomes with NADPH: 91.87%
[5]; 10 min
  Microsomal stability, % remaining: 89.02%
  % of compound remaining when incubated in human liver microsomes with NADPH: 89.02%
[5]; 15 min
  Microsomal stability, % remaining: 77.40%
  % of compound remaining when incubated in human liver microsomes with NADPH: 77.40%
[5]; 30 min
  Microsomal stability, % remaining: 66.83%
  % of compound remaining when incubated in human liver microsomes with NADPH: 66.83%
[5]; 45 min
  Microsomal stability, % remaining: 55.85%
  % of compound remaining when incubated in human liver microsomes with NADPH: 55.85%
[5]; 60 min
  Microsomal stability, % remaining: 53.78%
  % of compound remaining when incubated in human liver microsomes with NADPH: 53.78%
[5]
  microsomal stability (in words): improved stability over MI-219
  half-life: 0.902 h
[6]
  oral bioavailability / oral pharmacokinetics in rats (in words): much inferior oral pharmacokinetic parameters
  bioavailability: 8.4%
  half-life: 1.6 ± 0.2 h
  AUC(0-t): 419 ± 239 µg·h/mL
  Cmax: 102 ± 46 ng/mL

## CC(C)(C)C[C@H]1N[C@@H](C(=O)NCC[C@H](O)CN2CC[C@@H](O)C2)[C@H](c2cccc(Cl)c2)[C@@]12C(=O)Nc1cc(Cl)c(F)cc12 [MI-519-29]
[1]; [7]
  IC50: > 10 µM
[1]; [8]
  IC50: < 5 µM
[2]; 0 min
  Microsomal stability, % remaining: 100.00%
  % of compound remaining when incubated in rat liver microsomes with NADPH: 100.00%
[2]; 5 min
  Microsomal stability, % remaining: 93.42%
  % of compound remaining when incubated in rat liver microsomes with NADPH: 93.42%
[2]; 10 min
  Microsomal stability, % remaining: 84.91%
  % of compound remaining when incubated in rat liver microsomes with NADPH: 84.91%
[2]; 15 min
  Microsomal stability, % remaining: 82.81%
  % of compound remaining when incubated in rat liver microsomes with NADPH: 82.81%
[2]; 30 min
  Microsomal stability, % remaining: 70.75%
  % of compound remaining when incubated in rat liver microsomes with NADPH: 70.75%
[2]; 45 min
  Microsomal stability, % remaining: 71.89%
  % of compound remaining when incubated in rat liver microsomes with NADPH: 71.89%
[2]; 60 min
  Microsomal stability, % remaining: 69.91%
  % of compound remaining when incubated in rat liver microsomes with NADPH: 69.91%
[2]
  microsomal stability (in words): improved stability over MI-219
  half-life: 1.02 h
[3]
  IC50: < 1 µM
[4]; [9]
  IC50: < 5 µM
[4]; [10]
  IC50: > 10 µM
[5]; 0 min
  Microsomal stability, % remaining: 100.00%
  % of compound remaining when incubated in human liver microsomes with NADPH: 100.00%
[5]; 5 min
  Microsomal stability, % remaining: 70.67%
  % of compound remaining when incubated in human liver microsomes with NADPH: 70.67%
[5]; 10 min
  Microsomal stability, % remaining: 56.31%
  % of compound remaining when incubated in human liver microsomes with NADPH: 56.31%
[5]; 15 min
  Microsomal stability, % remaining: 49.52%
  % of compound remaining when incubated in human liver microsomes with NADPH: 49.52%
[5]; 30 min
  Microsomal stability, % remaining: 45.48%
  % of compound remaining when incubated in human liver microsomes with NADPH: 45.48%
[5]; 45 min
  Microsomal stability, % remaining: 40.08%
  % of compound remaining when incubated in human liver microsomes with NADPH: 40.08%
[5]; 60 min
  Microsomal stability, % remaining: 35.28%
  % of compound remaining when incubated in human liver microsomes with NADPH: 35.28%
[5]
  half-life: 0.201 h
[6]
  oral bioavailability / oral pharmacokinetics in rats (in words): much inferior oral pharmacokinetic parameters
  bioavailability: < 1%
  half-life: 6.9 ± 7.5 h
  AUC(0-t): 28 ± 15 µg·h/mL
  Cmax: 51 ± 30 ng/mL

## CC(C)(C)C[C@H]1N[C@@H](C(=O)NCCC(C)(O)CO)[C@H](c2cccc(Cl)c2)[C@@]12C(=O)Nc1cc(Cl)c(F)cc12 (stereo partly shown) [MI-758]
[1]; [7]
  IC50: 19.1 ± 3.6 µM
[1]; [8]
  IC50: 0.6 µM
[2]; 0 min
  Microsomal stability, % remaining: 100.00%
  % of compound remaining when incubated in rat liver microsomes with NADPH: 100.00%
[2]; 5 min
  Microsomal stability, % remaining: 96.52%
  % of compound remaining when incubated in rat liver microsomes with NADPH: 96.52%
[2]; 10 min
  Microsomal stability, % remaining: 92.93%
  % of compound remaining when incubated in rat liver microsomes with NADPH: 92.93%
[2]; 15 min
  Microsomal stability, % remaining: 82.50%
  % of compound remaining when incubated in rat liver microsomes with NADPH: 82.50%
[2]; 30 min
  Microsomal stability, % remaining: 73.32%
  % of compound remaining when incubated in rat liver microsomes with NADPH: 73.32%
[2]; 45 min
  Microsomal stability, % remaining: 69.33%
  % of compound remaining when incubated in rat liver microsomes with NADPH: 69.33%
[2]; 60 min
  Microsomal stability, % remaining: 66.93%
  % of compound remaining when incubated in rat liver microsomes with NADPH: 66.93%
[2]
  microsomal stability (in words): improved stability over MI-219
  half-life: 1.33 h
[3]
  IC50: < 1 µM
[4]; [9]
  IC50: 0.6 µM
[4]; [10]
  IC50: 18.7 ± 7.1 µM
[5]; 0 min
  Microsomal stability, % remaining: 100.00%
  % of compound remaining when incubated in human liver microsomes with NADPH: 100.00%
[5]; 5 min
  Microsomal stability, % remaining: 95.88%
  % of compound remaining when incubated in human liver microsomes with NADPH: 95.88%
[5]; 10 min
  Microsomal stability, % remaining: 89.21%
  % of compound remaining when incubated in human liver microsomes with NADPH: 89.21%
[5]; 15 min
  Microsomal stability, % remaining: 81.61%
  % of compound remaining when incubated in human liver microsomes with NADPH: 81.61%
[5]; 30 min
  Microsomal stability, % remaining: 65.20%
  % of compound remaining when incubated in human liver microsomes with NADPH: 65.20%
[5]; 45 min
  Microsomal stability, % remaining: 54.52%
  % of compound remaining when incubated in human liver microsomes with NADPH: 54.52%
[5]; 60 min
  Microsomal stability, % remaining: 51.45%
  % of compound remaining when incubated in human liver microsomes with NADPH: 51.45%
[5]
  microsomal stability (in words): improved stability over MI-219
  half-life: 0.825 h
[6]
  oral bioavailability / oral pharmacokinetics in rats (in words): good oral bioavailability and pharmacokinetic parameters
  bioavailability: 38%
  half-life: 1.9 ± 0.1 h
  AUC(0-t): 4280 ± 2690 µg·h/mL
  Cmax: 1490 ± 1120 ng/mL
